In patent US7795261B2, “Substituted 1-piperidin-4-yl-4-pyrrolidin-3-yl-piperazine derivatives and their use as neurokinin antagonists” (Janssen Pharmaceutica NV, priority 2002, dated 2010):

How the values were obtained:
Assay type in all cases: cell-based
NK1 = NK1 (Homo sapiens, UniProt P25103); test: Signal transduction (ST), intracellular Ca++ (FLIPR), NK1 antagonistic activity; conditions: read-out: pIC50 NK1 (converted)
Summary of the method: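 Confluent cells loaded with 2 μM Fluo3 (1 h, 37 °C, probenecid), preincubated 20 min at RT with antagonist concentration range, then agonist added. Peak Ca++ transient read by FLIPR in Krebs buffer pH 7.4; IC50 by non-linear regression.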

NK2 = target: T1, NK2 (Homo sapiens, UniProt P21452); test: Signal transduction (ST), intracellular Ca++ (FLIPR), NK2; conditions: read-out: pIC50 NK2 (converted)
T1 sequence (P21452 1-398): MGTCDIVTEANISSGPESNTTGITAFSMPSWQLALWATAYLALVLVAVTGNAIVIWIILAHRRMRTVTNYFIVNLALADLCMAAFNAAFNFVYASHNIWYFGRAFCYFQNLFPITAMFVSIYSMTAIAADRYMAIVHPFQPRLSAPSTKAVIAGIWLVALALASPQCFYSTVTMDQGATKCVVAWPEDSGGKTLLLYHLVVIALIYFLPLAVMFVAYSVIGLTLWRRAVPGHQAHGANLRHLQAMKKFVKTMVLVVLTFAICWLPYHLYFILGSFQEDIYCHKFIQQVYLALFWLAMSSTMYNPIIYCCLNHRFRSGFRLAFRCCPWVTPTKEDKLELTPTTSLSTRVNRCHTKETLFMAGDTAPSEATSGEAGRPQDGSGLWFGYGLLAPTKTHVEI
Description: [The procedure below names another target; the source lists this target under the same test.] This test evaluates in vitro functional NK1 antagonistic activity. For the measurements of intracellular Ca^++ concentrations the cells were grown on 96-well (black wall/transparent bottom) plates from Costar for 2 days until they reached confluence. The cells were loaded with 2 μM Fluo3 in DMEM containing 0.1% BSA and 2.5 mM probenecid for 1 h at 37° C. They were washed 3× with a Krebs buffer (140 mM NaCl, 1 mM MgCl2×6H2O, 5 mM KCl, 10 mM glucose, 5 mM HEPES; 1.25 mM CaCl2; pH 7.4) containing 2.5 mM probenecid and 0.1% BSA (Ca^++-buffer). The cells were preincubated with a concentration range of antagonists for 20 min at RT and Ca^++-signals after addition of the agonists were measured in a Fluorescence Image Plate Reader (FLIPR from Molecular Devices, Crawley, England). The peak of the Ca^++-transient was considered as the relevant signal and the mean values of corresponding wells were analysed as described below.
The sigmoidal dose response curves were analysed by computerised curve-fitting, using the GraphPad Program. […] For antagonist responses the IC50-value was calculated using non-linear regression.
The last columns indicates—without being limited therefore—for which the compounds might be most suitable. Of course, since for some neurokinin receptors no data was determined, it is obvious that these compounds might be attributed to another suitable use.

NK3 = target: T2, NK3 (Homo sapiens, UniProt P29371); test: Signal transduction (ST), intracellular Ca++ (FLIPR), NK3; conditions: read-out: pIC50 NK3 (converted)
T2 sequence (P29371 1-465): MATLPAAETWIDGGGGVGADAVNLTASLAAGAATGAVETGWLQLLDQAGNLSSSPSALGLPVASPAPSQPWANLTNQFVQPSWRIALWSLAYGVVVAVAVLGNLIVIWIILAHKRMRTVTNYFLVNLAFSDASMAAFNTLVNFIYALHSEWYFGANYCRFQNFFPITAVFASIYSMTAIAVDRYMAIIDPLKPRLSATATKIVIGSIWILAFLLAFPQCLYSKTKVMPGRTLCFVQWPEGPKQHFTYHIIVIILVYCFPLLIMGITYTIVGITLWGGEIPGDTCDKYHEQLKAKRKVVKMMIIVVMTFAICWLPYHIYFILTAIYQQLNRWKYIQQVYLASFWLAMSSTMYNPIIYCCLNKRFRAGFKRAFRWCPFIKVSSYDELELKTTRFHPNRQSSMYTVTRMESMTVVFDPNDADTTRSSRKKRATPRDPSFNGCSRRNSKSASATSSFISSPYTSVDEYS

Chain of NK1 (P25103 whole entry): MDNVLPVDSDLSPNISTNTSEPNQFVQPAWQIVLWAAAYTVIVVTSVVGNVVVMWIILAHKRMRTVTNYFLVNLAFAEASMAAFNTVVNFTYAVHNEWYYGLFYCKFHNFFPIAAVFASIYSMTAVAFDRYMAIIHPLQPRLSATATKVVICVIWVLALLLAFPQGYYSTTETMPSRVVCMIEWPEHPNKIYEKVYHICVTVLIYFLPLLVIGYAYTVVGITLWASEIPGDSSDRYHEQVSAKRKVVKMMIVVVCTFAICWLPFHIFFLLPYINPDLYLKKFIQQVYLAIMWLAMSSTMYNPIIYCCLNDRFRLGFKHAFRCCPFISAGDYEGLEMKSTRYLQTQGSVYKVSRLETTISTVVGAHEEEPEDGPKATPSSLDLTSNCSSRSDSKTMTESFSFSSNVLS

IC50 (NK1) [nM] | IC50 (NK2) [nM] | IC50 (NK3) [nM] | SMILES
15.8 | 3160 | 398 | O=C(c1ccsc1)N1CCC(N2CCN(C3CCN(C(=O)c4cc(C(F)(F)F)cc(C(F)(F)F)c4)C(Cc4ccccc4)C3)CC2)C1 (single isomer, unassigned) [Compound 39]
15.8 | 501 | 501 | O=C(c1ccoc1)N1CC[C@H](N2CCN([C@H]3CCN(C(=O)c4cc(C(F)(F)F)cc(C(F)(F)F)c4)[C@H](Cc4ccc(Cl)c(Cl)c4)C3)CC2)C1 [Compound 326]
20 | 1260 | 200 | O=C(c1cc(C(F)(F)F)cc(C(F)(F)F)c1)N1CC[C@H](N2CCN(C3CCN(S(=O)(=O)c4cccs4)C3)CC2)C[C@H]1Cc1ccccc1 (stereo partly drawn) [Compound 76]
31.6 | 5010 | 3160 | O=C(c1cc(C(F)(F)F)cc(C(F)(F)F)c1)N1CC[C@H](N2CCN(C3CCN(C(CO)c4cccs4)C3)CC2)C[C@H]1Cc1ccccc1 (stereo partly drawn) [Compound 319]
63.1 | 6310 | 3160 | O=C(c1cc(COCc2ccccc2)cs1)N1CCC(N2CCN([C@H]3CCN(C(=O)c4cc(C(F)(F)F)cc(C(F)(F)F)c4)[C@H](Cc4ccccc4)C3)CC2)C1 (stereo partly drawn) [Compound 352]
6.31 | 1000 | 200 | O=C(c1ccccc1Cl)N1CCC(N2CCN(C3CCN(C(=O)c4cc(C(F)(F)F)cc(C(F)(F)F)c4)C(Cc4ccc(F)c(F)c4)C3)CC2)C1 (single isomer, unassigned) [Compound 211]
50.1 | 2510 | 158 | O=C(C(=O)N1CCC(N2CCN(C3CCN(C(=O)c4cc(C(F)(F)F)cc(C(F)(F)F)c4)C(Cc4ccccc4)C3)CC2)C1)c1ccco1 (stereo not drawn) [Compound 64]
6.31 | 5010 | 79.4 | CC1(C)OC(=O)C[C@H]1C(=O)N1CCC(N2CCN([C@H]3CCN(C(=O)c4cc(C(F)(F)F)cc(C(F)(F)F)c4)[C@H](Cc4ccccc4)C3)CC2)C1 (stereo partly drawn) [Compound 404]
31.6 | 3160 | 501 | Cn1ccc(C(=O)N2CCC(N3CCN([C@H]4CCN(C(=O)c5cc(C(F)(F)F)cc(C(F)(F)F)c5)[C@H](Cc5ccccc5)C4)CC3)C2)c1 (stereo partly drawn) [Compound 23]
79.4 | 1000 | 631 | O=C(c1sccc1CCOCc1ccccc1)N1CCC(N2CCN([C@H]3CCN(C(=O)c4cc(C(F)(F)F)cc(C(F)(F)F)c4)[C@H](Cc4ccccc4)C3)CC2)C1 (stereo partly drawn) [Compound 361]

Continued, molecule first:

SMILES | IC50 (NK1) [nM] | IC50 (NK2) [nM] | IC50 (NK3) [nM]
O=C(C1CCOC1)N1CCC(N2CCN(C3CCN(C(=O)c4cc(C(F)(F)F)cc(C(F)(F)F)c4)C(Cc4ccc(F)c(F)c4)C3)CC2)C1 (single isomer, unassigned) [Compound 281] | 5.01 | 3980 | 3160
CC(C)(C)OC(=O)NC(C)(C)C(=O)N1CCC(N2CCN(C3CCN(C(=O)c4cc(C(F)(F)F)cc(C(F)(F)F)c4)C(Cc4ccccc4)C3)CC2)C1 (stereo not drawn) [Compound 205] | 10 | 3160 | 251
CC(C)(C)C(=O)N1CCCCC1C(=O)N1CCC(N2CCN([C@H]3CCN(C(=O)c4cc(C(F)(F)F)cc(C(F)(F)F)c4)[C@H](Cc4ccccc4)C3)CC2)C1 (stereo partly drawn) [Compound 297] | 6.31 | 2510 | 1260
O=C(c1c(Cl)cccc1Cl)N1CCC(N2CCN(C3CCN(C(=O)c4cc(C(F)(F)F)cc(C(F)(F)F)c4)C(Cc4ccc(F)c(F)c4)C3)CC2)C1 (single isomer, unassigned) [Compound 239] | 10 | 1000 | 251
O=C(c1sccc1CO)N1CCC(N2CCN([C@H]3CCN(C(=O)c4cc(C(F)(F)F)cc(C(F)(F)F)c4)[C@H](Cc4ccccc4)C3)CC2)C1 (stereo partly drawn) [Compound 360] | 10 | 3980 | 1000
COc1ccc(S(=O)(=O)N2CCC(N3CCN([C@H]4CCN(C(=O)c5cc(C(F)(F)F)cc(C(F)(F)F)c5)[C@H](Cc5ccccc5)C4)CC3)C2)s1 (stereo partly drawn) [Compound 328] | 6.31 | 631 | 6310
